Measurements taken from ChEMBL document CHEMBL4422644, “Synthesis and evaluation of α-aminoacyl amides as antitubercular agents effective on drug resistant tuberculosis” (Eur J Med Chem, 2019).
Converted amounts (≈) assume the structure as drawn.

Legend:
[1] = system: Mycobacterium tuberculosis; assay: Antitubercular activity against Mycobacterium tuberculosis H37Rv after 7 days by alamar blue assay; format: functional; details: 168 h
CHO-K1 = assay: Cytotoxicity against CHOK1 cells after 24 hrs by MTT assay; format: cell-based; details: Cricetulus griseus, CHO-K1, 24 h
[2] = Selectivity index, ratio of IC50 for CHOK1 cells to MIC for Mycobacterium tuberculosis H37Rv; format: toxicity; details: hamster, read-out: Selectivity Index
A549 = assay: Cytotoxicity against human A549 cells after 24 hrs by MTT assay; format: functional, cell-based; details: A549, 24 h
DU-145 = assay: Cytotoxicity against human DU145 cells after 24 hrs by MTT assay; format: functional, cell-based; details: DU-145, 24 h
HeLa = assay: Cytotoxicity against human HeLa cells after 24 hrs by MTT assay; format: functional, cell-based
HepG2 = assay: Cytotoxicity against human HepG2 cells after 24 hrs by MTT assay; format: functional, cell-based; details: HepG2, 24 h
MCF7 = assay: Cytotoxicity against human MCF7 cells after 24 hrs by MTT assay; format: functional, cell-based; details: MCF7, 24 h
[3] = Cytotoxicity against […] B16 cells after 24 hrs by MTT assay; format: functional, cell-based; details: B16, 24 h
[4] = Cytotoxicity against HEK cells after 24 hrs by MTT assay; format: cell-based; details: Homo sapiens, HEK293, 24 h
[5] = Selectivity index, ratio of IC50 for HEK cells to MIC for Mycobacterium tuberculosis H37Rv; format: toxicity; details: human, read-out: Selectivity Index
Escherichia coli = assay: Antibacterial activity against Escherichia coli ATCC 25922 after 24 hrs; format: functional; details: ATCC 25922, 24 h
Staphylococcus aureus = assay: Antibacterial activity against Staphylococcus aureus ATCC 29213 after 24 hrs; format: functional; details: ATCC 29213, 24 h
Pseudomonas aeruginosa = assay: Antibacterial activity against Pseudomonas aeruginosa ATCC 27853 after 24 hrs; format: functional; details: ATCC 27853, 24 h
Klebsiella pneumoniae = assay: Antibacterial activity against Klebsiella pneumoniae ATCC BAA-1705 after 24 hrs; format: functional; details: ATCC BAA-1705, 24 h
Acinetobacter baumannii = assay: Antibacterial activity against Acinetobacter baumannii ATCC BAA-1605 after 24 hrs; format: functional; details: ATCC BAA-1605, 24 h
[6] = system: Mycolicibacterium fortuitum; assay: Antibacterial activity against Mycobacterium fortuitum after 7 days by alamar blue assay; format: functional; details: 168 h
Mycobacteroides chelonae = assay: Antibacterial activity against Mycobacterium chelonae after 7 days by alamar blue assay; format: functional; details: 168 h
[7] = system: Mycobacteroides abscessus; assay: Antibacterial activity against Mycobacterium abscessus after 7 days by alamar blue assay; format: functional; details: 168 h
[8] = system: Mycobacterium tuberculosis; assay: Antitubercular activity against Mycobacterium tuberculosis H37Rv assessed as microbial killing at 4 fold MIC incubated for 6 days by MPN assay; format: functional, organism-based
[9] = system: Mycobacterium tuberculosis; assay: Antitubercular activity against Mycobacterium tuberculosis H37Rv after 6 days by alamar blue assay; format: functional; details: 144 h

Structure (SMILES) | MIC [1] [µM] | IC50 (CHO-K1) [µM] | selectivity ratio [2] | IC50 (A549) [µM] | IC50 (DU-145) [µM] | IC50 (HeLa) [µM] | IC50 (HepG2) [µM] | IC50 (MCF7) [µM] | IC50 [3] [µM] | IC50 [4] [µM] | selectivity ratio [5] | MIC (Escherichia coli) [µM] | MIC (Staphylococcus aureus) [µM] | MIC (Pseudomonas aeruginosa) [µM] | MIC (Klebsiella pneumoniae) [µM] | MIC (Acinetobacter baumannii) [µM] | MIC [6] [µM] | MIC (Mycobacteroides chelonae) [µM] | MIC [7] [µM] | other results
Cc1nc(C)c(C(=O)N(c2cccc(C)c2C)C(C(=O)NC2CCCCC2)c2cccnc2)s1 (configuration not stated) | 0.78 (≈ 0.372 µg/mL) | 107 | 136 | 8.62 | 10 | 9.58 | 14 | 6.39 | 13.4 | 81.1 | 104 | > 50 | > 50 | > 50 | > 50 | > 50 | > 50 | > 50 | > 50 | Activity [8]: Dose-dependent effect
Cc1nc(C)c(C(=O)N(c2cccc(C)c2C)C(C(=O)NC2CCCCC2)c2ccncc2)s1 (configuration not stated) | 1.56 (≈ 0.744 µg/mL) | 71.8 | 45.5 | 6.6 | 10.9 | 10.5 | 14.5 | 4.49 | 11.6 | 48.9 | 31.4 | > 50 | > 50 | > 50 | > 50 | > 50 | > 50 | > 50 | > 50 | –
Cc1cccc(N(C(=O)C2CCCCN2)C(C(=O)NC2CCCCC2)c2ccccc2)c1C (configuration not stated) | 3.12 (≈ 1.4 µg/mL) | 54.4 | 4.3 | 9.74 | 8.82 | 10.3 | 10.6 | 3.31 | 16.4 | 174 | 55.7 | > 50 | > 50 | > 50 | > 50 | > 50 | > 50 | > 50 | > 50 | –
Cc1nc(C)c(C(=O)N(c2cccc(C)c2C)C(C(=O)NC2CCCCC2)c2ccccc2)s1 (configuration not stated) | 12.5 (≈ 5.95 µg/mL) | 27.9 | 2.1 | 12.5 | 12.6 | 8.29 | 9.34 | 11 | 15.5 | 34.4 | – | > 50 | > 50 | > 50 | > 50 | > 50 | > 50 | > 50 | > 50 | MIC [9]: 12.5 µM (≈ 5.95 µg/mL)
